# Legend:
# IL-17A = IL-17A enzyme-linked immune quantitative assay in cytostim-activated human PBMC; assay type: cell-based; details: 72 h; IL-17A in supernatant of human PBMC, 3 days after drug treatment
# Description: 1. Human peripheral blood mononuclear cells (PBMC) (Zenbio)
# 5. Human IL-17 enzyme-linked immunosorbent kit (R&D System)
# Frozen human peripheral blood mononuclear cells (PBMC) were rapidly resuscitated in pre-warmed lymphocyte culture medium, and centrifuged at 1000 rpm for 10 min. The cell culture supernatant was removed. The cells were gently suspended in TexMACS medium and counted. The T cell activation reagent cytostim (10 μl/ml) was added in proportion to the cell suspension. Then, the cells were seeded in a 96-well cell culture plate at a density of 1×10^5 peripheral blood mononuclear cells/well. The test compounds were diluted in gradient with TexMACS medium, and added respectively to the test wells, with 2-3 parallel wells per group. A negative control well containing only cells without cytostim was provided to obtain the background reading. The cell culture plate was placed in a incubator at 5% carbon dioxide, 37° C. to incubate for 3 days. The cell culture supernatant was collected 3 days after drug treatment, and centrifuged to remove the suspension. Then, IL-17A in the supernatant was quantified with IL-17A enzyme-linked immunosorbent kit. EC50 values of the test compounds were calculated with GraphPad Prism 6.0.
# [1] = Pharmacokinetics assay in mice after intragastrical administration; assay type: in vivo; details: female, C57, mouse, plasma, po, 2 mg/kg
# Description: Mice were used as test animals. The drug concentration in plasma at different time points was determined by LC/MS/MS method after intragastrical administration of the compound of Example 4 to mice. The pharmacokinetic behavior of the compound of the present invention was studied and evaluated in mice. A group of nine C57 mice (female) were purchased from Shanghai Jiesijie Laboratory Animal Co., LTD, with Certificate No.: SCXK (Shanghai) 2013-0006. A certain amount of the test compound was weighed, and added with 5% by volume of DMSO, 5% by volume of tween 80 and 90% by volume of normal saline to prepare a 0.1 mg/mL colorless, clear and transparent solution. […] The samples were stored in heparinized tubes, and centrifuged for 10 minutes at 3500 rpm to separate the blood plasma. The plasma samples were stored at −20° C. The content of the test compound in the plasma of mice after intragastrical administration of the test compound at different concentrations was determined: 25 μL of mouse plasma at each time after administration was taken, added with 80 μL of the internal standard solution of camptothecin (100 ng/mL) and 200 μL of acetonitrile, vortex-mixed for 5 minutes, and centrifuged for 10 minutes (3600 rpm). 1 μL of the supernatant was taken from the plasma samples for LC/MS/MS analysis.
# MC38 colorectal tumor = assay: Efficacy in isotype MC38 colorectal tumor mice model; assay type: in vivo, C57BL/6 mice
# Description: The inhibition effect of the compound of Example 4 on MC38 tumor growth was evaluated in MC38 mice model.
# Experimental female C57BL/6 mice were purchased from Charles River Lab (U.S.A.). The mice weighed 20-25 gram, and were 7-9 weeks old when purchased. The mice (10 mice per cage) were maintained in a constant temperature of 23+1° C., and a humidity of 50-60%, and free access to food and water. The mice were treated and used in accordance with the Institutional Animal Care and Use Committee (IACUC approved guidelines). After the animals were purchased, the test was started after 7 days of adaptive feeding.
# Female C57BL/6 mice (20-25 gram, 7-9 weeks old) were used in the experiment. In vivo antitumor activity of the compound of Example 4 administered alone or the compound of Example 4 administered in combination with anti-mouse PD-1 antibody was evaluated by detecting the growth of isotype MC38 colorectal tumor (Synta Pharmaceuticals) in inbred C57BL/6 mice. 500,000 (5×10^5) MC38 cells were implanted subcutaneously in the right abdomen of each mouse. After 5 days, when the tumor grew to 40-80 mm^3, the mice were grouped randomly. The compound of Example 4 (30 mg/kg) was administered twice a day for 21 consecutive days. During the treatment experiment in which the antibody was administered alone or in combination with the compound of Example 4, anti-mouse PD-1 (CD279) antibody (BioXcell) (5 mg/kg) was intraperitoneally injected (i.p.) to the mice bearing MC38 tumor fixedly on Day 5, 8, 11 and 14. The control group was administered with the vehicle CMC-Na drug formulation and the IgG2a isotype control antibody.
# The tumor volume was measured with a caliper in three dimensions, and then calculated according to the following formula: tumor volume (mm^3)=l×w×h×0.5236, wherein 1 represents the length of the tumor, w represents the width of the tumor, and h represents the height of the tumor, in millimeters. Tumor growth inhibition rate TGI %=100×(TVcontrol−TVtumor)/(TVcontrol−TVinitial), wherein TVcontrol=the tumor volume of the control group; TVtumor=the tumor volume of the treatment group; and TVinitial=the initial tumor volume on Day 5.
# [2] = 30 mg/kg in combination with anti-mouse PD-1 monoclonal antibody (5 mg/kg)
smiles,measurement,setting,value
"CCS(=O)(=O)c1ccc([C@H](CO)NC(=O)c2ccc3c(c2)cc(Cc2ccc(Cl)cc2C(F)(F)F)n3CCF)cc1 [Example 4, (R)-2-(4-Chloro-2-(trifluoromethyl)benzyl)-N-(1-(4-(ethylsulfonyl)phenyl)-2-hydroxyethyl)-1-(2-fluoroethyl)-1H-indole-5-carboxamide]",EC50,IL-17A,0.085 µM
same,Emax,IL-17A,93%
same,Vd/F,[1]; read-out: Apparent distribution volume Vz/F,0.637 L/kg
same,AUC,[1]; read-out: Area under curve AUC,50.6 µg·h/mL
same,CL/F,[1]; read-out: Clearance CLz/F,0.0396 L/h/kg
same,half-life,[1]; read-out: Half-life T1/2 (converted),11.2 h
same,Cmax,[1]; read-out: Plasma concentration Cmax,3.66 µg/mL
same,MRT,[1]; read-out: Residence time MRT,15.5 h
same,TGI (tumor growth inhibition rate),"MC38 colorectal tumor; 30 mg/kg administered alone, oral, twice a day for 21 days",40%
same,Effect of combined administration with PD-1 antibody,MC38 colorectal tumor; [2],synergistic effect
same,TGI (tumor growth inhibition rate),MC38 colorectal tumor; [2],63%
same,Antitumor activity,MC38 colorectal tumor; administered alone,exhibits an antitumor activity

# — patent publication US20200131123A1, “INDOLE-FORMAMIDE DERIVATIVE, PREPARATION METHOD THEREFOR AND USE THEREOF IN MEDICINE” (Jiangsu Hengrui Medicine Co., Ltd., priority 2017, published 2020)
